Reference: US12600740B2, “Fluorinated N-acetyl glucosamine analogs and xylose derivatives” (UTI Limited Partnership, priority 2018, dated 2026)
Entries after “also recorded” stand apart in the source; their conditions may differ.

Experiments:
[1] = tested on: CSPG production by astrocytes; experiment: Western blot of astrocyte conditioned medium, MAB2030 (chondroitin sulfate GAG stubs); type: cell-based, mouse; conditions: astrocyte conditioned media, 50 μM, 48 hours
Excerpt: Astrocytes are major producers of CSPGs following injury in the CNS [Jones, L. L., Margolis, R. U. & Tuszynski, M. H. The chondroitin sulfate proteoglycans neurocan, brevican, phosphacan, and versican are differentially regulated following spinal cord injury. Experimental Neurology 182, 399-411 (2003); Tang, X., Davies, J. E. & Davies, S. J. Changes in distribution, cell associations, and protein expression levels of NG2, neurocan, phosphacan, brevican, versican V2, and tenascin-C during acute to chronic maturation of spinal cord scar tissue. […] The Journal of neuroscience: the official journal of the Society for Neuroscience 20, 2427-2438 (2000); McKeon, R. J., Jurynec, M. J. & Buck, C. R. The chondroitin sulfate proteoglycans neurocan and phosphacan are expressed by reactive astrocytes in the chronic CNS glial scar. The Journal of neuroscience: the official journal of the Society for Neuroscience 19, 10778-10788 (1999); Haas, C. A., Rauch, U., Thon, N., Merten, T. & Deller, T. Entorhinal cortex lesion in adult rats induces the expression of the neuronal chondroitin sulfate proteoglycan neurocan in reactive astrocytes. The Journal of neuroscience: the official journal of the Society for Neuroscience 19, 9953-9963 (1999)] and they may help drive progression of disability in a model of progressive MS [Mayo, L. et al. Regulation of astrocyte activation by glycolipids drives chronic CNS inflammation. Nature medicine 20, 1147-1156 (2014)]. Therefore astrocytes were used as model cells to determine the ability of the sugar analogs to reduce synthesis of CSPGs. Since CSPGs are exported out of cells, the conditioned media from analog-treated astrocytes were probed by Western blots (FIG. 4). We used antibodies to both the stubs of chondroitin sulfate GAGs attached to the core protein (MAB2030) and to intact 4-sulfated chondroitin sulfate sidechains (2H6) (FIG. 4a). Particularly, we used the 2H6 antibody to label intact 4-sulfated chondroitin sulfate sidechains, and the MAB2030 antibody to detect the stubs of chondroitin sulfate GAGs attached to the core protein. […] 1998, 160 (8), 3812-3819. Poole Poole C. A.; Glant T. T.; Schofield J. R.; Chondrons from articular cartilage. (IV). Immunolocalization of proteoglycan epitopes in isolated canine tibial chondrons. J. Histochem. Cytochem. 1991, 39 (9), 1175-1187].
Astrocytes were plated in uncoated 6-well plates (3 replicate wells per treatment) at 1×10^6 cells/well in mixed glial media, and incubated at 5% CO2 and 37° C. Astrocytes were treated with compounds at 50 μM in AIM-V media for 48 hours. Media was pooled from 3 replicate wells in 15 ml 100K cutoff centricon tubes (EMD Millipore, #UFC905008), which were spun on an ultracentrifuge at 5000× g for 2 cycles of 10 minutes each. When harvested, the cell lysate was kept on ice for 5 minutes with 250 μL of RIPA buffer (ThermoFisher Scientific #89900) containing proteinase inhibitor, and then collected and centrifuged at 14000 g for 5 minutes. Total protein was quantified using a Bradford assay. Conditioned media that were to be probed for chondroitin 4-sulfate GAGs (Millipore, #MAB2030) were first digested with 0.2 U/ml chondroitinase ABC for overnight at 37° C. to remove chondroitin sulfate sidechains. Blots that were to be probed with CSA (2H6, Cosmo) or CS56 (Abcam #ab11570) were not exposed to chondroitinase ABC. Samples were heat denatured with NuPAGE® LDS Sample buffer at 70° C. for 10 minutes and then loaded into 3-8% tris-acetate pre-cast gels (ThermoFisher, #EA0478BOX). The gels were electrophoresed at a constant 150 V for 90 minutes and transferred to a […] polyvinylidene fluoride membrane at a constant 250 mA for 60 minutes. The membranes were blocked for one hour with 10% skim milk in Tris-buffered saline (TBS; 0.9% NaCl, 10 mM Tris-HCl, pH 7.5) containing 0.5% Tween 20 (TBS-T). Primary antibodies were added in 3% skim milk and incubated overnight at 4° C. […]

[2] = tested on: TNFα; experiment: TNFα ELISA of LPS-stimulated bone marrow-derived macrophages; type: cell-based, mouse; conditions: BMDMs, 50 μM, LPS 100 ng/ml, 24 hours
Protocol: Multiple Sclerosis: Mechanisms and Immunotherapy. Neuron 97, 742-768 (2018)]. It was tested whether the sugar analogs could affect the activity of macrophages, using bone marrow-derived macrophages (BMDMs) stimulated with lipopolysaccharide (LPS, 100 ng/ml). The sugar analogs were added at 50 μM prior to LPS, and the conditioned medium was collected after 24 hours and assayed for levels of the secreted cytokine TNFα. […] Testing Toxicity of Sugar Analogs
Femurs were carefully removed from euthanized female C57BI/6 mice, and marrow was flushed into a culture plate with cold complete bone marrow growth medium (DMEM, 10% fetal bovine serum, and the supplements 1% penicillin/streptomycin, 1% glutamine, 1% non-essential amino acids, and 10% supernatant from L929 cell-line enriched in macrophage-colony stimulating factor). Cells were spun at 1100 rpm for 10 minutes, resuspended in fresh growth medium and plated at 10×10^6 cells/ml in a 10 cm culture dish. Cells were grown in DMEM with supplements and L929 supernatant for 5 days, then half the medium was replaced with fresh growth medium. On day 7 growth medium was replaced with DMEM with 10% FBS and supplements. Cells were used on day 8, and experiments were conducted in DMEM with 1% FBS and supplements unless otherwise specified.
BMDM were plated at 25,000 cells in 96-well plates in DMEM+L929 media. After 24 hours media was changed to DMEM+1% FBS. One hour later, cells were treated with […] compounds or PBS. After 1 hour LPS (final concentration 100 ng/ml) was added. Following 24 hours, conditioned media was harvested for TNFα ELISA (Thermo Scientific), which was performed according to manufacturer's instructions.

[3] = tested on: splenocytes; experiment: Splenocyte thymidine proliferation assay (anti-CD3/anti-CD28); type: cell-based, mouse; conditions: 25 μM, 48 hours
Protocol: It was assessed whether the glucosamine analogs have immunomodulatory properties on splenocytes isolated in culture. T cells within the splenocyte pool were polyclonally activated with anti-CD3 and anti-CD28 antibodies in the presence of compounds for 48 hours, and proliferation was determined by the uptake of tritiated thymidine and expressed as counts per minute. The relative change in proliferation of treated versus control splenocytes was taken in order to rank the compounds across multiple independent experiments (FIG. 8a).
The spleens were isolated from 8-10-week-old female C57BL/6 mice and homogenized. The cells were isolated by Ficoll gradient and spun for 30 min at 1,800 r.p.m. The cell suspension was removed and the cells were washed once with PBS. The cell pellet was subsequently re-suspended in Roswell Park Memorial Institute media containing 10% fetal bovine serum, 1% penicillin/streptomycin, 1% sodium pyruvate and 1% L-glutamine. Trypan blue exclusion was used to count live cells, and the cells were plated at 2.5×10^5 cells per well in a round-bottom 96-well plate and activated with 1,000 ng/ml plate-bound anti-CD3 and 1,000 ng/ml anti-CD28 suspended in media to preferentially activate T lymphocytes. Compounds were added at final concentrations of 25 μM. The cells were kept at 37° C. and 5% CO2 for 30 h, after which 10 μl/well (1 μCi per well) of 3H-thymidine was added for 18 h. The cells containing thymidine were harvested onto filter mats using a cell harvester and mats were allowed to dry for 24 h. The results were read by liquid scintillation counts.

[4] = tested on: splenocytes; experiment: Propidium iodide DNA cell cycle flow cytometry of splenocytes; type: cell-based, mouse; conditions: activated splenocytes
Excerpt: Cell-cycle flow cytometry with propidium iodide was used to corroborate the above results, and ensure the reduction in proliferation was not due to cell death. […] To further investigate whether the reduction of proliferation was due to cell death, Annexin V and propidium iodide staining were used to differentiate necrotic cells (propidium iodide+), apoptotic cells (annexin V+), dead cells (propidium iodide+ and annexin V+), and live cells (propidium iodide-annexin V−).
Cell cycle staining with propidium iodide (PI) and analysis by flow cytometry gives percentage of cells in apoptosis, G1, G2, and synthesis, and apoptosis. Following a membrane permeabilization, PI chelates to DNA and level of staining specifies the stage of the cell cycle (e.g., G2 phase will have twice the DNA and thus twice the PI signal as G1 phase, apoptotic cells contain less DNA than healthy cells and are identified by low PI staining). 1×10^6 splenocytes were used per sample, with four replicates per condition. Cells were collected into a tube with PBS and centrifuged (200 r.p.m. for 5 minutes). […] Suspension was transferred to a FACs tube and analyzed. Annexin V/Propidium iodide staining was detected using the Annexin V FITC apoptosis detection kit (BD Biosciences, #556547), which was performed according to manufacturer's instructions.

[5] = tested on: mice demyelinated with lysolecithin; experiment: Lysolecithin demyelination of the mouse spinal cord; type: in vivo; conditions: 100 mg/kg IP twice a day, Day 3 to Day 6; Day 7 post-demyelination; listed as difluorosamine
Protocol: On Day 0, 7 mice were injected with 0.5 μL of 1.0% lysolecithin in the ventral funiculus of the spinal cord. Thereafter, 4 mice were treated from Day 3 to Day 6 with saline vehicle IP twice a day. 3 mice were treated from Day 3 to Day 6 with difluorosamine 100 mg/kg IP twice a day. On Day 7, mice were transcardially perfused with cold PBS and 4% PFA. Thoracic spinal cords were dissected, fixed and analyzed. Sections adjacent to lesion epicenters were triple-stained for Olig2 (cells of the oligodendrocyte lineage), PDGFRα (oligodendrocyte precursor cell) and MBP (myelin). The number of Olig2+, Olig2+ PDGFRα+ (oligodendrocyte precursor cell), and Olig2+ PDGFRα− (presumed mature oligodendrocytes) cells per field of view were quantified blindly. Statistics were conducted using 1-tailed t-tests.

SMILES: CCC(=O)OCC1OC(O)C(NC(C)=O)C(OC(=O)CC)[C@@H]1F (mixture of isomers) [Compound 11, 2-Acetamido-2,4-dideoxy-4-fluoro-3,6-di-O-propanoyl-α/β-D-glucopyranose]
- effect on CSPG production by astrocytes [1]: did not lower CSPG production in astrocytes
- TNFα production by LPS-stimulated macrophages [2]: enhanced TNFα levels
- splenocyte proliferation [3]: reduced splenocyte proliferation

SMILES: CC(=O)NC1C(O)OC(COC(C)=O)[C@@H](F)C1OC(C)=O (stereo in doubt) [Compound 10]
- percentage of cells in cell cycle phases [4]: reduced the percentage of cells in the S (DNA synthesis)-phase of the cell cycle

SMILES: CC(=O)NC1C(OC(C)=O)OC(COC(C)=O)C(F)(F)C1OC(C)=O [Compound 16, 2-Acetamido-1,3,6-tri-O-acetyl-2,4-dideoxy-4,4-difluoro-α/β-D-xylo-hexopyranose]
- percentage of Olig2+ oligodendrocyte lineage cells that are Olig2+ PDGFRα+ OPCs [5]: significant increase; also recorded: increased the proportion of oligodendrocyte precursor cells (OPCs)
